Measured values published in ChEMBL document CHEMBL3779856, “Synthesis and antiproliferative activity of 6,7-disubstituted-4-phenoxyquinoline derivatives bearing the 2-oxo-4-chloro-1,2-dihydroquinoline-3-carboxamide moiety” (Bioorg Med Chem Lett, 2016).

Experiments:
[1] = Cytotoxicity against human U87MG cells assessed as cell growth inhibition after 72 hrs by MTT assay; type: functional, cell-based, U-87MG ATCC; settings: U-87 MG
cells [2] = settings: Homo sapiens, NCI-H460, 72 h
Description: Cytotoxicity against human H460 cells assessed as cell growth inhibition after 72 hrs by MTT assay

A549 = test: Cytotoxicity against human A549 cells assessed as cell growth inhibition after 72 hrs by MTT assay; type: functional, cell-based; settings: A549, 72 h
cells [3] = settings: Homo sapiens, MKN-45, 72 h
Description: Cytotoxicity against human MKN45 cells assessed as cell growth inhibition after 72 hrs by MTT assay

HT-29 [4] = test: cells; settings: Homo sapiens, HT-29, 72 h
Description: Cytotoxicity against human HT-29 cells assessed as cell growth inhibition after 72 hrs by MTT assay

[5] = molecular target: Hepatocyte growth factor receptor (Homo sapiens, UniProt P08581); test: Inhibition of cMet (unknown origin) using poly (Glu, Tyr) 4:1 as substrate after 30 mins by HTRF assay
Hepatocyte growth factor receptor, sequence (P08581 whole entry): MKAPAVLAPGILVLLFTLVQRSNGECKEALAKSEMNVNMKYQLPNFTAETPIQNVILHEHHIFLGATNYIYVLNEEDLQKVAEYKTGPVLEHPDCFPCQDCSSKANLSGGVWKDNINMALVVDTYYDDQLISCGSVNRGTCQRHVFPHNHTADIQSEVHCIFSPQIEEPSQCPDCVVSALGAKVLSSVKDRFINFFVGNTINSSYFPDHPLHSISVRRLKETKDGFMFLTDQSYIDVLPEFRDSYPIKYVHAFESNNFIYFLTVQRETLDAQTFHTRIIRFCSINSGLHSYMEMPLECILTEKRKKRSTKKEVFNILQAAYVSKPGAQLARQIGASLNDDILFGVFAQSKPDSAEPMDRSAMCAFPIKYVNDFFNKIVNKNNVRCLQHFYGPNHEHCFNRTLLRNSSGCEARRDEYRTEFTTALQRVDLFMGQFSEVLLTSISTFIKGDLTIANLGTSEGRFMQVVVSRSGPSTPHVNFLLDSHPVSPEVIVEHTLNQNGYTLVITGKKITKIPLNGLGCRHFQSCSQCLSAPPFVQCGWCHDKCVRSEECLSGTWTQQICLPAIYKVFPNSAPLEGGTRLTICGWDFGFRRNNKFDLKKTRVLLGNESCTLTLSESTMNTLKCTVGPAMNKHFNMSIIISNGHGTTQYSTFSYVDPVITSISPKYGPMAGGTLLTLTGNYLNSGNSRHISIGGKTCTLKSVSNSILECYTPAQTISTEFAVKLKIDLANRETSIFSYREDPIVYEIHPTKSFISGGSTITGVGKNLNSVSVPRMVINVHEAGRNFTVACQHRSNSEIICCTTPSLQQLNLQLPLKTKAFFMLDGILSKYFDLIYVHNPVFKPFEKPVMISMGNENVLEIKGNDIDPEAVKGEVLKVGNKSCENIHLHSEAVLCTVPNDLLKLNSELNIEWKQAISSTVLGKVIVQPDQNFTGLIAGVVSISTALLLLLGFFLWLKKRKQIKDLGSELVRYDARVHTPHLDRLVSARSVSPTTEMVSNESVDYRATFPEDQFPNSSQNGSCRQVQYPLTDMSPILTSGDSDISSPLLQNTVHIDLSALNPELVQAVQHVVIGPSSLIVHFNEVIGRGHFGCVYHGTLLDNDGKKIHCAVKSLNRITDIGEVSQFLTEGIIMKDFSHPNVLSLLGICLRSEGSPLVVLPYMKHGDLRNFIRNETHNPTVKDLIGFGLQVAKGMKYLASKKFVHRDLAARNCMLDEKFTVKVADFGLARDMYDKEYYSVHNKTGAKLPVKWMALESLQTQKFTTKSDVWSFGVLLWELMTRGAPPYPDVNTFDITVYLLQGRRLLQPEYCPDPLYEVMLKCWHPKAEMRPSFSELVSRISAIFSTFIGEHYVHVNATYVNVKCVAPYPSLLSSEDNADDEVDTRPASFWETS

U-87 MG = test: Potency index, ratio of foretinib IC50 to compound IC50 for human U87MG cells; type: functional, U-87MG ATCC
[6] = Potency index, ratio of foretinib IC50 to compound IC50 for human H460 cells; type: functional
[7] = molecular target: Vascular endothelial growth factor receptor 2 (Homo sapiens, UniProt P35968); test: Inhibition of VEGFR-2 (unknown origin) using poly (Glu, Tyr) 4:1 as substrate after 30 mins by HTRF assay
[8] = molecular target: Platelet-derived growth factor receptor beta (Homo sapiens, UniProt P09619); test: Inhibition of PDGFRbeta (unknown origin) using poly (Glu, Tyr) 4:1 as substrate after 30 mins by HTRF assay
Platelet-derived growth factor receptor beta, sequence (P09619 whole entry): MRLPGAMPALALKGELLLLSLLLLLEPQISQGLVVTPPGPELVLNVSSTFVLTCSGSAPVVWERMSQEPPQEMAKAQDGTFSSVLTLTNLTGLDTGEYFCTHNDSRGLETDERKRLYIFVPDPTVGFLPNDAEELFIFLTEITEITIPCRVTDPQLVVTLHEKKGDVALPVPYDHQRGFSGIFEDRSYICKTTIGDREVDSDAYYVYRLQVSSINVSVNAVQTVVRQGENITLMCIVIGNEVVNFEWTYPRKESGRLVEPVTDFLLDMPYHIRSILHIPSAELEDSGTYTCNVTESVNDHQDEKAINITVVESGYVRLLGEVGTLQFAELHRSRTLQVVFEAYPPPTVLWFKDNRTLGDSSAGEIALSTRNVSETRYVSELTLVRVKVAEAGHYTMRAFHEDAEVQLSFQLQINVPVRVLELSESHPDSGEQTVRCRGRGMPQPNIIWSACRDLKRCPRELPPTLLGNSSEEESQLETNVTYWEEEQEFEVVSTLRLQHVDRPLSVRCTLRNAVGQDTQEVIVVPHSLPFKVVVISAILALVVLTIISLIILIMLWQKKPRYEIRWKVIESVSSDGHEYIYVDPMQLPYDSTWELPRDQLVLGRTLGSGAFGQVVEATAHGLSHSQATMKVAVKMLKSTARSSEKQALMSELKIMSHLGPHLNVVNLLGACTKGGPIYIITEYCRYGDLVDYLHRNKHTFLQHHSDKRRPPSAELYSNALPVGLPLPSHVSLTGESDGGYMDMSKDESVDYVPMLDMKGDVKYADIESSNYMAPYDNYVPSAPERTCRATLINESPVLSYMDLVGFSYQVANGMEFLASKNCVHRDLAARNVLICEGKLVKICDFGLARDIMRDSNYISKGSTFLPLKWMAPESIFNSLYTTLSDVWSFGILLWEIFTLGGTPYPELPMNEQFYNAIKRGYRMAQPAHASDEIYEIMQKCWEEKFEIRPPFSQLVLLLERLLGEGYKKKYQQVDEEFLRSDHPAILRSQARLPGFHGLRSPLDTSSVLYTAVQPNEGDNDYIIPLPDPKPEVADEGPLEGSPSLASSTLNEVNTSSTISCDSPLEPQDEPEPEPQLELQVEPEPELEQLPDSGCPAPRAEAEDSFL

[9] = molecular target: Mast/stem cell growth factor receptor Kit (Homo sapiens, UniProt P10721); test: Inhibition of cKIT (unknown origin) using poly (Glu, Tyr) 4:1 as substrate after 30 mins by HTRF assay
Mast/stem cell growth factor receptor Kit, sequence (P10721 whole entry): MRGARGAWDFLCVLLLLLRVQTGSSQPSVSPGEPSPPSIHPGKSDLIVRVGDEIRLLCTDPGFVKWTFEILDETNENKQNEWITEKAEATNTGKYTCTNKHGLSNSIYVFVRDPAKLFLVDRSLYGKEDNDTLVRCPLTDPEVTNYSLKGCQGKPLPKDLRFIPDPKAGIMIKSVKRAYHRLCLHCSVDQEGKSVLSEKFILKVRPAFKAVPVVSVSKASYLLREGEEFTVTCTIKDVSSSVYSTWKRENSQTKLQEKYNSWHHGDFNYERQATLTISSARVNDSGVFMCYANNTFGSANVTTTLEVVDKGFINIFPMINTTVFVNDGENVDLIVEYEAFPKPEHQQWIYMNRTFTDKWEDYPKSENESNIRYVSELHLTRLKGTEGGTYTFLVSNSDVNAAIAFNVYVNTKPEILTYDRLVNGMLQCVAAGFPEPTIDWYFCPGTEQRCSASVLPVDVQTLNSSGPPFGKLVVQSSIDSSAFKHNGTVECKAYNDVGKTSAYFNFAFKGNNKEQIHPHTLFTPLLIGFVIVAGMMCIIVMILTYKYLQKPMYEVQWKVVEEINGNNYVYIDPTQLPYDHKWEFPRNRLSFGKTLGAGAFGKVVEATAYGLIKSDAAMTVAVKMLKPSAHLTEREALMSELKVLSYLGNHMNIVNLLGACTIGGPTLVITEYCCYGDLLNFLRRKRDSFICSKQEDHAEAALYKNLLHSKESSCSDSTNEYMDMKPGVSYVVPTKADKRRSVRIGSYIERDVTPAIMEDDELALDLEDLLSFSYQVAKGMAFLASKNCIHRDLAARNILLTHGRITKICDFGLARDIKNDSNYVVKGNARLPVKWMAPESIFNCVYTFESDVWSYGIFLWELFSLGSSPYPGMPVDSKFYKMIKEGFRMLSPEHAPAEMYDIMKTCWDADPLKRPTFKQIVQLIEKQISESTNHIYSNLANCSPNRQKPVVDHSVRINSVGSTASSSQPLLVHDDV

[10] = molecular target: Epidermal growth factor receptor (Homo sapiens, UniProt P00533); test: Inhibition of EGFR (unknown origin) using poly (Glu, Tyr) 4:1 as substrate after 30 mins by HTRF assay
Epidermal growth factor receptor, sequence (P00533 whole entry): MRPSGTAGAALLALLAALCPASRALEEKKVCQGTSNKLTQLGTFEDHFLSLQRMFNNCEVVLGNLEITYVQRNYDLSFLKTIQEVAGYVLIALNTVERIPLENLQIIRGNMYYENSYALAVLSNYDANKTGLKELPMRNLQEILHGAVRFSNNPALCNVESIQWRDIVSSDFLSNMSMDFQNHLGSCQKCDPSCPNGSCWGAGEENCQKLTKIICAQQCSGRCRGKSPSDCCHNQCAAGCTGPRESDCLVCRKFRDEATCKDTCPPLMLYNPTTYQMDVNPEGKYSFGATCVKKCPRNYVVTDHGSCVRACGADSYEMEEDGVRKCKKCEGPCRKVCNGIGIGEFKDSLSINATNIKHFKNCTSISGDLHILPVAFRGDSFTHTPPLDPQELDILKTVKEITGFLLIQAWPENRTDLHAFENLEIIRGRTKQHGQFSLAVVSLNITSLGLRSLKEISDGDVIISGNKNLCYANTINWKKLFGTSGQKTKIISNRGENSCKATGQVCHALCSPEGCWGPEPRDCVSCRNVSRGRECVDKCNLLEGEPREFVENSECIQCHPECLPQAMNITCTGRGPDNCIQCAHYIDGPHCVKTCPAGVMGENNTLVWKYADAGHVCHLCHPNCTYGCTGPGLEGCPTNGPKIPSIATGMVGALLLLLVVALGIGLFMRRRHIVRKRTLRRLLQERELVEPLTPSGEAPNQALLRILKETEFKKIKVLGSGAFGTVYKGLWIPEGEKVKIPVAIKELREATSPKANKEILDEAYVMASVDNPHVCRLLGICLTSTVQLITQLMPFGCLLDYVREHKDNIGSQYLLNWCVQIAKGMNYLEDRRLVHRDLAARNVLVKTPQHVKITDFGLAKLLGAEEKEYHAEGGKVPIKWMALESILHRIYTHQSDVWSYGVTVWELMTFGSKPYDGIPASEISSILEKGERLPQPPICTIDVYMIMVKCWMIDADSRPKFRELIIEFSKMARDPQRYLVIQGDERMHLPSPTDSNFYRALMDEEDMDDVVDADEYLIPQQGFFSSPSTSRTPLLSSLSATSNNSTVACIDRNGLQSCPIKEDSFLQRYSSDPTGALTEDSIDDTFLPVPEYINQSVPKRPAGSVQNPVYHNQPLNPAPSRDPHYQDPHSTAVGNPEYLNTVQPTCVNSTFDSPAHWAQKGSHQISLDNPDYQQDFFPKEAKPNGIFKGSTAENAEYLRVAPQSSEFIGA

HT-29 [11] = test: Potency index, ratio of foretinib IC50 to compound IC50 for human HT-29 cells; type: functional
[12] = molecular target: T1, Receptor-type tyrosine-protein kinase FLT3 (Homo sapiens, UniProt P36888); test: Inhibition of FLT3 (unknown origin) using poly (Glu, Tyr) 4:1 as substrate after 30 mins by HTRF assay
T1 sequence (P36888 whole entry): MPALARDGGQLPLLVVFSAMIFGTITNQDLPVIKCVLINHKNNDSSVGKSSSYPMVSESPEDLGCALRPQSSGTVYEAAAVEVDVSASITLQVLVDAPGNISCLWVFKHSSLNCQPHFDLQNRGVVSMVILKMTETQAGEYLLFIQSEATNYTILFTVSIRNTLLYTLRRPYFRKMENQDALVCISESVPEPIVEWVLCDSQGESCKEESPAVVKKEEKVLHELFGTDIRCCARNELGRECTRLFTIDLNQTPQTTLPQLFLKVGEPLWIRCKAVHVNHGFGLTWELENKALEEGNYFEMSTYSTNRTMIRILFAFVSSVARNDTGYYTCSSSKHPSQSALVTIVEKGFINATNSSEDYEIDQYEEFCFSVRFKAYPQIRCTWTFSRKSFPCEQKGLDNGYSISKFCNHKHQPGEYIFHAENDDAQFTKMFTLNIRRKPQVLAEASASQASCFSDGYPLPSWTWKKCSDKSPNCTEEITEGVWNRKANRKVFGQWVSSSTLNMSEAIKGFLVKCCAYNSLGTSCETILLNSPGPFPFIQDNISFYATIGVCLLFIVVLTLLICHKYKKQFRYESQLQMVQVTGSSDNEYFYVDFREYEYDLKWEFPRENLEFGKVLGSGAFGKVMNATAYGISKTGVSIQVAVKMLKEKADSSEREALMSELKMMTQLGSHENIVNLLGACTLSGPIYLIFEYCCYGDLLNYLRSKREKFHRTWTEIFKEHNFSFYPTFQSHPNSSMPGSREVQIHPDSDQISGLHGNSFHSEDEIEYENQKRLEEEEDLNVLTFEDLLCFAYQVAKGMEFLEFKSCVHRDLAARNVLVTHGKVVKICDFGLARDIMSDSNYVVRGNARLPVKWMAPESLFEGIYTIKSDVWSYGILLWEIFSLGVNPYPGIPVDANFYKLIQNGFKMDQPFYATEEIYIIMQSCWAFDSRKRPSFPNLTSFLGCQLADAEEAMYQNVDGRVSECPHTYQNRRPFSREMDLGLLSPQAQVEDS

SMILES | IC50 [1] | IC50 (cells [2]) | IC50 (A549) | IC50 (cells [3]) | IC50 (HT-29 [4]) | IC50 [5] | Ratio IC50 (U-87 MG) | Ratio IC50 [6] | IC50 [7] | IC50 [8] | IC50 [9] | IC50 [10] | Ratio IC50 (HT-29 [11]) | IC50 [12]
COc1cc2c(Oc3ccc(NC(=O)c4c(Cl)c5ccccc5n(-c5ccc(C)cc5)c4=O)cc3F)ccnc2cc1OCCCN1CCOCC1 | 5.16 µM | 0.85 µM | 0.83 µM | 0.78 µM | 0.39 µM |  |  |  |  |  |  |  |  | 
COc1cc2c(Oc3ccc(NC(=O)c4c(Cl)c5ccccc5n(-c5ccccc5OC(F)(F)F)c4=O)cc3F)ccnc2cc1OCCCN1CCCC1 |  | 0.36 µM |  | 1.4 µM | 1.5 µM |  |  |  |  |  |  |  |  | 
COc1cc2c(Oc3ccc(NC(=O)c4c(Cl)c5ccccc5n(-c5ccccc5)c4=O)cc3F)ccnc2cc1OCCCN1CCCC1 | 1.6 µM | 0.21 µM | 0.81 µM | 0.21 µM | 0.39 µM |  |  |  |  |  |  |  |  | 
COc1cc2c(Oc3ccc(NC(=O)c4c(Cl)c5ccccc5n(-c5ccccc5OC)c4=O)cc3F)ccnc2cc1OCCCN1CCOCC1 |  | 1.2 µM |  | 1.26 µM | 1.4 µM |  |  |  |  |  |  |  |  | 
COc1cc2c(Oc3ccc(NC(=O)c4c(Cl)c5ccccc5n(-c5ccc(C)cc5)c4=O)cc3F)ccnc2cc1OCCCN1CCN(C)CC1 | 1.06 µM | 0.12 µM | 0.31 µM | 0.12 µM | 0.15 µM |  |  |  |  |  |  |  |  | 
COc1cc2c(Oc3ccc(NC(=O)c4c(Cl)c5ccccc5n(-c5ccccc5F)c4=O)cc3F)ccnc2cc1OCCCN1CCN(C)CC1 | 1.32 µM | 0.27 µM | 0.29 µM | 0.41 µM | 0.17 µM |  |  |  |  |  |  |  |  | 
COc1cc2c(Oc3ccc(NC(=O)c4c(Cl)c5ccccc5n(-c5ccc(F)cc5)c4=O)cc3F)ccnc2cc1OCCCN1CCCC1 | 0.64 µM | 0.12 µM | 0.72 µM | 0.57 µM | 0.15 µM | 0.0125 µM |  |  |  |  |  |  |  | 
COc1cc2c(Oc3ccc(NC(=O)c4c(Cl)c5ccccc5n(-c5ccccc5)c4=O)cc3F)ccnc2cc1OCCCN1CCCCC1 | 1.3 µM | 0.14 µM | 0.51 µM | 0.28 µM | 41.6 µM | 0.0184 µM |  |  |  |  |  |  |  | 
COc1cc2c(Oc3ccc(NC(=O)c4c(Cl)c5ccccc5n(-c5ccccc5)c4=O)cc3F)ccnc2cc1OCCCN1CCC(C)CC1 | 1.42 µM | 0.15 µM | 0.39 µM | 0.46 µM | 0.35 µM | 0.00684 µM |  |  |  |  |  |  |  | 
COc1cc2c(Oc3ccc(NC(=O)c4c(Cl)c5ccccc5n(-c5ccc(F)cc5)c4=O)cc3F)ccnc2cc1OCCCN1CCN(C)CC1 | 0.52 µM | 0.031 µM | 0.11 µM | 0.16 µM | 0.068 µM | 0.00121 µM | 2.1 | 6.1 | 0.543 µM | 0.526 µM | 0.363 µM | > 100 µM | 2.4 | 0.00215 µM
COc1cc2c(Oc3ccc(NC(=O)c4c(Cl)c5ccccc5n(-c5ccccc5)c4=O)cc3F)ccnc2cc1OCCCN1CCOCC1 | 4.8 µM | 0.26 µM | 0.93 µM | 0.31 µM | 0.46 µM |  |  |  |  |  |  |  |  | 
COc1cc2c(Oc3ccc(NC(=O)c4c(Cl)c5ccccc5n(-c5ccc(F)cc5)c4=O)cc3F)ccnc2cc1OCCCN1CCOCC1 | 8.5 µM | 0.061 µM | 0.11 µM | 0.21 µM | 0.14 µM | 0.00532 µM |  |  |  |  |  |  |  | 
COc1cc2c(Oc3ccc(NC(=O)c4c(Cl)c5ccccc5n(-c5ccc(C)cc5)c4=O)cc3F)ccnc2cc1OCCCN1CCC(C)CC1 | 3.2 µM | 0.18 µM | 0.35 µM | 0.12 µM | 0.19 µM |  |  |  |  |  |  |  |  | 
COc1cc2c(Oc3ccc(NC(=O)c4c(Cl)c5ccccc5n(-c5ccc(F)cc5)c4=O)cc3F)ccnc2cc1OCCCN1CCCCC1 | 1.6 µM | 0.11 µM | 0.16 µM | 0.31 µM | 0.29 µM | 0.0122 µM |  |  |  |  |  |  |  | 
COc1cc2c(Oc3ccc(NC(=O)c4c(Cl)c5ccccc5n(-c5ccccc5OC)c4=O)cc3F)ccnc2cc1OCCCN1CCCCC1 |  | 0.58 µM |  | 0.42 µM | 12.6 µM |  |  |  |  |  |  |  |  | 
COc1cc2c(Oc3ccc(NC(=O)c4c(Cl)c5ccccc5n(-c5ccccc5OC)c4=O)cc3F)ccnc2cc1OCCCN1CCN(C)CC1 |  | 0.15 µM |  | 0.12 µM | 0.53 µM |  |  |  |  |  |  |  |  | 
COc1cc2c(Oc3ccc(NC(=O)c4c(Cl)c5ccccc5n(-c5ccccc5OC(F)(F)F)c4=O)cc3F)ccnc2cc1OCCCN1CCC(C)CC1 |  | 0.38 µM |  | 0.31 µM | 0.57 µM |  |  |  |  |  |  |  |  | 
COc1cc2c(Oc3ccc(NC(=O)c4c(Cl)c5ccccc5n(-c5ccc(C)cc5)c4=O)cc3F)ccnc2cc1OCCCN1CCCC1 | 3.24 µM | 0.23 µM | 0.23 µM | 0.9 µM | 0.48 µM |  |  |  |  |  |  |  |  | 
COc1cc2c(Oc3ccc(NC(=O)c4c(Cl)c5ccccc5n(-c5ccc(F)cc5)c4=O)cc3F)ccnc2cc1OCCCN1CCC(C)CC1 | 1.92 µM | 0.089 µM | 0.99 µM | 0.16 µM | 0.11 µM | 0.00326 µM |  |  |  |  |  |  |  | 
COc1cc2c(Oc3ccc(NC(=O)c4c(Cl)c5ccccc5n(-c5ccccc5)c4=O)cc3F)ccnc2cc1OCCCN1CCN(C)CC1 |  | 0.061 µM |  | 0.12 µM | 0.091 µM | 0.00175 µM |  |  |  |  |  |  |  | 
COc1cc2c(Oc3ccc(NC(=O)c4c(Cl)c5ccccc5n(-c5ccccc5F)c4=O)cc3F)ccnc2cc1OCCCN1CCOCC1 |  | 0.58 µM |  | 0.74 µM | 1.21 µM |  |  |  |  |  |  |  |  | 
COc1cc2c(Oc3ccc(NC(=O)c4c(Cl)c5ccccc5n(-c5ccc(C)cc5)c4=O)cc3F)ccnc2cc1OCCCN1CCCCC1 |  | 0.17 µM |  | 0.48 µM | 0.52 µM |  |  |  |  |  |  |  |  | 
COc1cc2c(Oc3ccc(NC(=O)c4c(Cl)c5ccccc5n(-c5cc(C)cc(C)c5)c4=O)cc3F)ccnc2cc1OCCCN1CCCC1 |  | 0.62 µM |  | 1.2 µM | 0.3 µM |  |  |  |  |  |  |  |  | 
